Test results published in US20240226228A1, “ANTIMICROBIAL PEPTOID HAVING IMPROVED SELECTIVITY AND ANTIMICROBIAL COMPOSITION COMPRISING SAME” (priority 2021, published 2024).
Converted amounts (≈) assume the structure as drawn. Where two headings read alike, the source gives them in different places. Where a SMILES comes first, the peptide text is derived from it. [ ]: non-standard residue; d: D form. Gly(N(CH2)2(3-indolyl)) = O=C(O)CNCCc1c[nH]c2ccccc12; Gly(N-CH2CH2-imidazol-4-yl) = O=C(O)CNCCc1c[nH]cn1; Nspe = C[C@H](NCC(=O)O)c1ccccc1; Nphe = O=C(O)CNCc1ccccc1; Nlys = NCCCCNCC(=O)O

Experiments:
red blood cells = assay: Hemolysis assay; format: cell-based, Sprague-Dawley mouse
Outline: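 Peptoid is mixed with 10% (v/v) PBS-washed erythrocytes (male Sprague-Dawley […], 13 weeks) and held 1 h at 37 °C. Hemolysis is calculated from 540 nm absorbance of the supernatant, with PBS as 0% and Triton X-100 as 100%.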

E. coli ATCC25922 = test system: E. coli ATCC25922
Method: (§1) To measure the antimicrobial activity of the peptoids synthesized in Example 1, an E. coli ATCC25922 strain as gram-negative bacteria and an S. aureus KCTC25923 strain as gram-positive bacteris, were treated with the peptoids, followed by measuring the minimum inhibitory concentration (MIC). Peptoids 1 and 2 are antimicrobial peptoids known in the art, and used as controls for comparing antimicrobial activity with a novel peptoid.
(§2) Specifically, the S. aureus KCTC25923 or E. coli ATCC25922 strain was inoculated into a Mueller Hinton Broth (MHB2) liquid medium in which cations had been adjusted in the medium, cultured at 37° C. for 18 hours, subcultured, and then incubated for 4 hours. Afterward, for each bacterial strain, an optical density (OD, 0.001) was adjusted so that the bacterial count became 2×10^5 to 5×10^5 colony-forming units (CFU) per mL, which was then diluted with a MHB2 liquid medium containing 0.02% bovine serum albumin and 0.001% acetic acid, and dispensed at 100 μL into a 96-well microplate. Using sterile water, a peptoid stock 40 times stronger than a concentration to be tested was subjected to two-fold serial dilution and assessed at six different concentrations, and the maximum value of the peptoid concentrations was 25 μM. Subsequently, the plate was incubated at 37° C. for 24 hours. Afterward, optical density (OD) values at 600 nm were measured using a microplate reader (Bio-Rad).
(§3) Each MIC value was determined as the average value of a value obtained through three independent experiments.
(§4) Referring to Table 22, to measure the antimicrobial activity of the peptoids synthesized in Example 3, an MIC was measured by treating gram-negative bacteria, that is, the E. coli ATCC25922 strain, and gram-positive bacteria, that is, the S. aureus ATCC25923 strain, with the peptoids. Here, Peptoid 1 is a conventionally known antimicrobial peptoid, and Omiganan is a derivative of indolicidin, which is an antimicrobial peptide, under clinical development, and was used as a control for comparing antimicrobial activity with the novel peptoid.

S. aureus ATCC 25923 = test system: S. aureus ATCC 25923
Method: as §1, §2, §3, §4

[1] = Table 18, TFA salt vs counter ion-substituted (HCl, AcOH) peptoids
[2] = Tables 11-13, 24 hours at 37° C., maximum concentration 25 μM

| Compound | HC10 (red blood cells) | HC50 (red blood cells) | Hmax (100 μM) (red blood cells) | MIC E. coli ATCC25922 (E. coli ATCC25922; [1]) [µM] | MIC S. aureus ATCC 25923 (S. aureus ATCC 25923; [1]) [µM] | MIC E. coli ATCC25922 (E. coli ATCC25922; [2]) [µM] | MIC S. aureus ATCC 25923 (S. aureus ATCC 25923; [2]) [µM] | HD10 (red blood cells) | HD50 (red blood cells) | MIC E. coli ATCC25922 (E. coli ATCC25922; ATCC25922) [µM] | MIC S. aureus ATCC 25923 (S. aureus ATCC 25923; ATCC 25923) [µM] |
| --- | --- | --- | --- | --- | --- | --- | --- | --- | --- | --- | --- |
| C[C@@H](c1ccccc1)N(CC(N)=O)C(=O)CN(C(=O)CN(CCCCN)C(=O)CN(C(=O)CN(C(=O)CN(CCCCN)C(=O)CN(C(=O)CN(C(=O)CN(CCCCN)C(=O)CN(CCc1c[nH]c2ccccc12)C(=O)CN(C(=O)CNCCCCN)[C@@H](C)c1ccccc1)[C@@H](C)c1ccccc1)[C@@H](C)c1ccccc1)[C@@H](C)c1ccccc1)[C@@H](C)c1ccccc1)[C@@H](C)c1ccccc1 [Peptoid 10-1] | 15.3 µM | 37.8 µM | 81.5 ± 7.4% | 6.3 | 3.1 | – | – | – | – | – | – |
| C[C@@H](c1ccccc1)N(CC(=O)N(CCCCN)CC(=O)N(CC(=O)N(CC(=O)N(CCCCN)CC(=O)N(CCc1c[nH]c2ccccc12)CC(=O)N(CCc1c[nH]c2ccccc12)CC(N)=O)[C@@H](C)c1ccccc1)[C@@H](C)c1ccccc1)C(=O)CN(CCCCN)C(=O)CN(CCCCN)C(=O)CN(C(=O)CN(C(=O)CNCCCCN)[C@@H](C)c1ccccc1)[C@@H](C)c1ccccc1 [Peptoid 30] (H-[Nlys][Nspe][Nspe][Nlys][Nlys][Nspe][Nlys][Nspe][Nspe][Nlys][Gly(N(CH2)2(3-indolyl))][Gly(N(CH2)2(3-indolyl))]-NH2) | >100/>100 μM | >100/>100 μM | 8.4 ± 0.5% | – | – | 12.5 (≈ 23.3 µg/mL) | 3.1 (≈ 5.78 µg/mL) | – | – | – | – |
| C[C@@H](c1ccccc1)N(CC(N)=O)C(=O)CN(C(=O)CN(CCCCN)C(=O)CN(C(=O)CN(C(=O)CN(CCCCN)C(=O)CN(CCc1c[nH]c2ccccc12)C(=O)CN(C(=O)CN(CCCCN)C(=O)CN(C(=O)CN(CCCCN)C(=O)CNCCCCN)[C@@H](C)c1ccccc1)[C@@H](C)c1ccccc1)[C@@H](C)c1ccccc1)[C@@H](C)c1ccccc1)[C@@H](C)c1ccccc1 [Peptoid 27] | >100/>100 μM | >100/>100 μM | 5.9 ± 0.2% | – | – | 25 (≈ 45.6 µg/mL) | 3.1 (≈ 5.66 µg/mL) | – | – | – | – |
| C[C@@H](c1ccccc1)N(CC(=O)N(CCCCN)CC(=O)N(CCc1c[nH]c2ccccc12)CC(=O)N(CCc1c[nH]c2ccccc12)CC(N)=O)C(=O)CN(CCCCN)C(=O)CN(CCCCN)C(=O)CN(C(=O)CN(C(=O)CN(CCc1c[nH]cn1)C(=O)CN(C(=O)CN(C(=O)CNCCCCN)[C@@H](C)c1ccccc1)[C@@H](C)c1ccccc1)[C@@H](C)c1ccccc1)[C@@H](C)c1ccccc1 [Peptoid 80] (H-[Nlys][Nspe][Nspe][Gly(N-CH2CH2-imidazol-4-yl)][Nspe][Nspe][Nlys][Nlys][Nspe][Nlys][Gly(N(CH2)2(3-indolyl))][Gly(N(CH2)2(3-indolyl))]-NH2) | – | – | 4.0 ± 0.5 | – | – | – | – | >100.0/>100.0 | >100.0/>100.0 | 12.5 (≈ 23.6 µg/mL) | 6.3 (≈ 11.9 µg/mL) |
| C[C@@H](c1ccccc1)N(CC(N)=O)C(=O)CN(C(=O)CN(CCCCN)C(=O)CN(C(=O)CN(C(=O)CN(CCCCN)C(=O)CN(CCc1c[nH]c2ccccc12)C(=O)CN(C(=O)CN(CCCCN)C(=O)CN(C(=O)CN(C(=O)CNCCCCN)[C@@H](C)c1ccccc1)[C@@H](C)c1ccccc1)[C@@H](C)c1ccccc1)[C@@H](C)c1ccccc1)[C@@H](C)c1ccccc1)[C@@H](C)c1ccccc1 [Peptoid 9] | 10.6 µM | 31.9 µM | 106.4 ± 0.6% | – | – | 3.1 (≈ 5.76 µg/mL) | 1.6 (≈ 2.97 µg/mL) | – | – | – | – |
| C[C@@H](c1ccccc1)N(CC(=O)N(CCCCN)CC(=O)N(CCc1c[nH]c2ccccc12)CC(=O)N(CCc1c[nH]c2ccccc12)CC(N)=O)C(=O)CN(CCCCN)C(=O)CN(CCCCN)C(=O)CN(C(=O)CN(C(=O)CN(CCCCN)C(=O)CN(Cc1ccccc1)C(=O)CN(Cc1ccccc1)C(=O)CNCCCCN)[C@@H](C)c1ccccc1)[C@@H](C)c1ccccc1 [Peptoid 41] (H-[Nlys][Nphe][Nphe][Nlys][Nspe][Nspe][Nlys][Nlys][Nspe][Nlys][Gly(N(CH2)2(3-indolyl))][Gly(N(CH2)2(3-indolyl))]-NH2) | >100/>100 μM | >100/>100 μM | 7.1 ± 0.1% | – | – | 25 (≈ 45.9 µg/mL) | 6.3 (≈ 11.6 µg/mL) | – | – | – | – |
| C[C@@H](c1ccccc1)N(CC(N)=O)C(=O)CN(C(=O)CN(CCCCN)C(=O)CN(C(=O)CN(C(=O)CN(CCCCN)C(=O)CN(C(=O)CN(CCCCN)C(=O)CN(CCCCN)C(=O)CN(CCc1c[nH]c2ccccc12)C(=O)CN(CCc1c[nH]c2ccccc12)C(=O)CNCCCCN)[C@@H](C)c1ccccc1)[C@@H](C)c1ccccc1)[C@@H](C)c1ccccc1)[C@@H](C)c1ccccc1 [Peptoid 34] | >100/>100 μM | >100/>100 μM | 8.5 ± 1.1% | – | – | 25 (≈ 46.6 µg/mL) | 3.1 (≈ 5.78 µg/mL) | – | – | – | – |
| C[C@@H](c1ccccc1)N(CC(=O)N(CCCCN)CC(=O)N(CC(=O)N(CC(=O)N(CCCCN)CC(=O)N(CC(=O)N(CC(=O)N(CCCCN)CC(=O)N(CCc1c[nH]c2ccccc12)CC(=O)N(CCc1c[nH]c2ccccc12)CC(N)=O)[C@@H](C)c1ccccc1)[C@@H](C)c1ccccc1)[C@@H](C)c1ccccc1)[C@@H](C)c1ccccc1)C(=O)CN(CCCCN)C(=O)CNCCCCN [Peptoid 31] (H-[Nlys][Nlys][Nspe][Nlys][Nspe][Nspe][Nlys][Nspe][Nspe][Nlys][Gly(N(CH2)2(3-indolyl))][Gly(N(CH2)2(3-indolyl))]-NH2) | 59.0 µM | > 100 µM | 18.4 ± 5.0% | – | – | 6.3 (≈ 11.7 µg/mL) | 3.1 (≈ 5.78 µg/mL) | – | – | – | – |
| C[C@@H](c1ccccc1)N(CC(=O)N(CCCCN)CC(=O)N(CC(=O)N(CC(=O)N(CCCCN)CC(=O)N(CC(=O)N(CC(=O)N(CCCCN)CC(=O)N(CC(=O)N(CCc1c[nH]c2ccccc12)CC(N)=O)[C@@H](C)c1ccccc1)[C@@H](C)c1ccccc1)[C@@H](C)c1ccccc1)[C@@H](C)c1ccccc1)[C@@H](C)c1ccccc1)C(=O)CN(CCc1c[nH]c2ccccc12)C(=O)CNCCCCN [Peptoid 17] (H-[Nlys][Gly(N(CH2)2(3-indolyl))][Nspe][Nlys][Nspe][Nspe][Nlys][Nspe][Nspe][Nlys][Nspe][Gly(N(CH2)2(3-indolyl))]-NH2) | 18.0 µM | 39.7 µM | 87.3 ± 6.7% | – | – | 6.3 (≈ 12 µg/mL) | 1.6 (≈ 3.04 µg/mL) | – | – | – | – |
| C[C@@H](c1ccccc1)N(CC(=O)N(CCCCN)CC(=O)N(CC(=O)N(CC(=O)N(CCCCN)CC(=O)N(CC(=O)N(CC(=O)N(CCCCN)CC(N)=O)[C@@H](C)c1ccccc1)[C@@H](C)c1ccccc1)[C@@H](C)c1ccccc1)[C@@H](C)c1ccccc1)C(=O)CN(C(=O)CN(CCCCN)C(=O)CN(CCc1c[nH]c2ccccc12)C(=O)CNCCc1c[nH]c2ccccc12)[C@@H](C)c1ccccc1 [Peptoid 37-2] (H-[Gly(N(CH2)2(3-indolyl))][Gly(N(CH2)2(3-indolyl))][Nlys][Nspe][Nspe][Nlys][Nspe][Nspe][Nlys][Nspe][Nspe][Nlys]-NH2) | 12.5 µM | 26.0 µM | 98.9 ± 8.0% | 6.3 | 1.6 | – | – | – | – | – | – |
| C[C@@H](c1ccccc1)N(CC(N)=O)C(=O)CN(CCCCN)C(=O)CN(CCc1c[nH]cn1)C(=O)CN(C(=O)CN(C(=O)CN(CCCCN)C(=O)CN(C(=O)CN(C(=O)CN(CCCCN)C(=O)CN(CCc1c[nH]c2ccccc12)C(=O)CN(CCc1c[nH]c2ccccc12)C(=O)CNCCCCN)[C@@H](C)c1ccccc1)[C@@H](C)c1ccccc1)[C@@H](C)c1ccccc1)[C@@H](C)c1ccccc1 [Peptoid 75] (H-[Nlys][Gly(N(CH2)2(3-indolyl))][Gly(N(CH2)2(3-indolyl))][Nlys][Nspe][Nspe][Nlys][Nspe][Nspe][Gly(N-CH2CH2-imidazol-4-yl)][Nlys][Nspe]-NH2) | – | – | 18.3 ± 1.1 | – | – | – | – | 68.0 | > 100.0 | 6.3 (≈ 11.9 µg/mL) | 6.3 (≈ 11.9 µg/mL) |
| C[C@@H](c1ccccc1)N(CC(N)=O)C(=O)CN(CCCCN)C(=O)CN(CCCCN)C(=O)CN(C(=O)CN(C(=O)CN(CCCCN)C(=O)CN(C(=O)CN(CCc1c[nH]cn1)C(=O)CN(CCCCN)C(=O)CN(CCc1c[nH]c2ccccc12)C(=O)CN(CCc1c[nH]c2ccccc12)C(=O)CNCCCCN)[C@@H](C)c1ccccc1)[C@@H](C)c1ccccc1)[C@@H](C)c1ccccc1 [Peptoid 67] (H-[Nlys][Gly(N(CH2)2(3-indolyl))][Gly(N(CH2)2(3-indolyl))][Nlys][Gly(N-CH2CH2-imidazol-4-yl)][Nspe][Nlys][Nspe][Nspe][Nlys][Nlys][Nspe]-NH2) | – | – | – | – | – | – | – | – | – | >25 | 25 (≈ 46.4 µg/mL) |
